How the values were obtained:
mGluR5 receptor (pig) = molecular target: T1, mGluR5 receptor (pig) (Sus scrofa, UniProt I3LUI7); experiment: [3H]-MPEP binding in the mGluR5 receptor binding assay (pig brain homogenate); conditions: 5 nM [3H]-MPEP; for IC50: pig brain homogenate; for mGluR5 receptor (pig) (10 μM) Inhibition (%): 10 μM test compound, 450 μg protein from pig brain homogenate, 60 min, room temperature
T1 construct: 450 μg of protein from brain homogenate is incubated; from tissue; host or cells: pig brain hemispheres without medulla, cerebellum and pons
T1 sequence (I3LUI7 19-1212): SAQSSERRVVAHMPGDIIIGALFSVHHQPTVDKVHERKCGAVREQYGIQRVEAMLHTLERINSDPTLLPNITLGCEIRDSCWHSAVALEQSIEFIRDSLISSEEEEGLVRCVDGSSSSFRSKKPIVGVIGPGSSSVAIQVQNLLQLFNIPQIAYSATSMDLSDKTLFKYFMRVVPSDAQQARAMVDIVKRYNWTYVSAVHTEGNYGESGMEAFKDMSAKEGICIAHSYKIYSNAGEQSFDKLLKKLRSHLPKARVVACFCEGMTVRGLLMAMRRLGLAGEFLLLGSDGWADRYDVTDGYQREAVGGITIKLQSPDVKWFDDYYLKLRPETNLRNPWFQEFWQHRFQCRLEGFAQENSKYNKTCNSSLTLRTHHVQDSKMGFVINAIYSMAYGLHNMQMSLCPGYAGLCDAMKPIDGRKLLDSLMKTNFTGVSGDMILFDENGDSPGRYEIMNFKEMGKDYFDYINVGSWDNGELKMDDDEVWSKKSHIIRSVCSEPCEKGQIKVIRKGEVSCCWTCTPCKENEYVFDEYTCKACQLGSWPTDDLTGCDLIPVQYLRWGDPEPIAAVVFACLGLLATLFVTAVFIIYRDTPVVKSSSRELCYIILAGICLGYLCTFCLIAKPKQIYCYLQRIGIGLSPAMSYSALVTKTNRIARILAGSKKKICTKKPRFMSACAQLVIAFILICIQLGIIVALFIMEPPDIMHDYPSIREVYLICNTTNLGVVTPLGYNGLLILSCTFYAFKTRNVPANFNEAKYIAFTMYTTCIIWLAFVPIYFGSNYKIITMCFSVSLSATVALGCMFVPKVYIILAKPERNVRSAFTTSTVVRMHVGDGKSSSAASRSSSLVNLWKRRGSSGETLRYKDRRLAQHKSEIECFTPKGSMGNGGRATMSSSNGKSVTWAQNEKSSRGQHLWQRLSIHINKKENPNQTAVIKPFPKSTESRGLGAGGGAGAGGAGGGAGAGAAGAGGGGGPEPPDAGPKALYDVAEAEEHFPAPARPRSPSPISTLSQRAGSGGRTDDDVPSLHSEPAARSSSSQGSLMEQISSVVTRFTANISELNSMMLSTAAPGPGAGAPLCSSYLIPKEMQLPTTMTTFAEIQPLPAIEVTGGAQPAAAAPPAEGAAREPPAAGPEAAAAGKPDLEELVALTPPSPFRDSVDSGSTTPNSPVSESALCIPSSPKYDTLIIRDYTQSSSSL
Description: I. Method for Determining the Inhibition of [^3H]-MPEP Binding in the mGluR5 Receptor Binding Assay
Pig brain homogenate is produced by homogenisation (Polytron Pt 3000, Kinematica AG, 10,000 revolutions per minute for 90 seconds) of pig brain hemispheres without medulla, cerebellum and pons in a buffer of pH 8.0 (30 mM Hepes, Sigma, order number H3375+1 tablet Complete Roche Diagnostics, order number 1836145 made up to 100 ml) in a ratio of 1:20 (brain weight/volume) and differential centrifugation at 900×g and 40,000×g. 450 μg of protein from brain homogenate is incubated in each case in 250 μl incubation batches in 96-well microtitre plates with 5 nM ^3[H]-MPEP (Tocris, order number R1212) (MPEP=[…]) and the compounds to be investigated ([…]) in the buffer (as above) at room temperature for 60 min.
The batches are then filtered with the assistance of a Brandel Cell Harvester (Brandel, Robotic 9600 model) on Unifilter plates with glass filter mats (Perkin Elmer, order number 6005177) and then washed 3 times with buffer (as above) using 250 μl per sample. The filter plates are then dried for 60 min at 55° C. Then 30 μl of Ultima Gold™ scintillating material (Packard BioScience, order number 6013159) is added per well and after 3 hours the samples are measured using the β counter (Microbeta, Perkin Elmer). Nonspecific binding is determined by the addition of 10 μM MPEP (Tocris, order number 1212).

mGluR5 receptor (human) = molecular target: T2, mGluR5 receptor (human) (Homo sapiens, UniProt P41594); experiment: Functional Ca2+ influx assay in the mGluR5 receptor assay (CHO-hmGluR5 cells, DHPG); format: cell-based; conditions: 10 μM DHPG, Ki=IC50/(1+(AGconc/EC50))
T2 construct: host or cells: CHO cells (CHO-hmGluR5), expression induced with doxycycline
T2 sequence (P41594 21-1212): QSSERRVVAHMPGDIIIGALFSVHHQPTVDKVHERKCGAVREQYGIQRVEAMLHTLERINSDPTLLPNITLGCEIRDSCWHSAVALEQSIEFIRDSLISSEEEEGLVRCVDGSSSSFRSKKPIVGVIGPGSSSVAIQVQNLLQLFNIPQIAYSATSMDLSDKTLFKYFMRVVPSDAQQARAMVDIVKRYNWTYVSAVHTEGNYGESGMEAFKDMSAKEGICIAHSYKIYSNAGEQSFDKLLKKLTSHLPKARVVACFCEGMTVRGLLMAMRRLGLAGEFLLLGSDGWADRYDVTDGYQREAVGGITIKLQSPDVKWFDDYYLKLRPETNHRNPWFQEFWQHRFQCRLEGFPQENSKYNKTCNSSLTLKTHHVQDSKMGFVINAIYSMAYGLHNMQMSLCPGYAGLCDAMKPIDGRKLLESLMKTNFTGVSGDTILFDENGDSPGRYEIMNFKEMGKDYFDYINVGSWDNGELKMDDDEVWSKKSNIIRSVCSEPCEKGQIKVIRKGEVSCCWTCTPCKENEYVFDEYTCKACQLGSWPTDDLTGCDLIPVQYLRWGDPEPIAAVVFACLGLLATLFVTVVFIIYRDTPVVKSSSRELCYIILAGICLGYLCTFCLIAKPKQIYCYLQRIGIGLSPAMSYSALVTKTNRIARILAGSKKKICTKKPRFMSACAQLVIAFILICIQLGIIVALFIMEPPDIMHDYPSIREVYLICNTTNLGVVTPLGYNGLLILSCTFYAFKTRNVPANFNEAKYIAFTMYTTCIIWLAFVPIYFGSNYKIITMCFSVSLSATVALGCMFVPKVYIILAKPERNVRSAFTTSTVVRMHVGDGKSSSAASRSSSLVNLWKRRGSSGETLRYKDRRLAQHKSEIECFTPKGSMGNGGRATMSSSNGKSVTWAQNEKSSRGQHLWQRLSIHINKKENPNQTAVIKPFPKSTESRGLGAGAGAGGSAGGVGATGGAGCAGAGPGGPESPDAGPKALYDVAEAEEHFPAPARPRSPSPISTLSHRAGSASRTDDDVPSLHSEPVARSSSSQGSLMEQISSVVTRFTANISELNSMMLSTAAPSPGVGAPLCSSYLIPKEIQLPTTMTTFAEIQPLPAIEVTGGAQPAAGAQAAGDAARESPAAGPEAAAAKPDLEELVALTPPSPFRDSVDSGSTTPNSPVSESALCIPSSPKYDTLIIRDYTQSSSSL
From the text: II. Method for Determining Ca^2+ Influx in the mGluR5 Receptor Assay
An agonistic and/or antagonistic substance action on the mGluR5 receptor of the rat species may be determined with the following assay. According to this assay, intracellular Ca^2+ release is quantified after activation of the mGluR5 receptor with the assistance of a Ca^2+-sensitive dye (type Fluo-4, Molecular Probes Europe BV, Leiden, Netherlands) in a FlexStation (Molecular Devices, Sunnyvale, USA).
Description of the Functional Ca^2+ Influx Assay
20,000 CHO-hmGluR5 cells/well (Euroscreen, Gosselies, Belgium) are pipetted out into 96 well plates (BD Biosciences, Heidelberg, Germany, Ref. 356640, clear bottom, 96 well, poly-D-lysine) and incubated overnight in HBSS buffer (Gibco No. 14025-050) with the following additives: 10% FCS (GIBCO, 10270-106) and doxycycline (BD Biosciences Clontech 631311 600 ng/ml).
For the purpose of functional investigation, the cells were loaded with 2 μM Fluo-4 and 0.01 vol. % Pluronic F127 (Molecular Probes Europe BV, Leiden, Netherlands) in HBSS buffer (Hank's buffered saline solution, Gibco Invitrogen GmbH, Karlsruhe, Germany) with Probenicid (Sigma P8761, 0.69 mg/ml) for 30 min at 37° C.
The cells are then washed 3 times with washing buffer (HBSS buffer, Gibco No. 14025-050, with Probenicid (Sigma P8761, 0.69 [mg]/ml) and then resuspended with the same buffer to make up to 100 μl. After 15 min the plates are transferred for determination of Ca^2+ measurements in the presence of DHPG ((S)-3,5-dihydroxyphenylglycine, Tocris Biotrend Chemikalien GmbH, Cologne, Germany, final DHPG concentration: 10 μM) and in the presence or absence of test substances into a FLuorometric Imaging Plate Reader (FLIPR, Molecular Devices, Sunnyvale, Calif.).
Ca^2+-dependent fluorescence is measured before and after addition of test substances. Quantification proceeds by measuring the highest fluorescence intensity over time.
After recording a fluorescence baseline for 10 s, 50 μl of test substance solution (various test substance concentrations in HBSS buffer with 1% DMSO and 0.02% Tween 20, Sigma) are added and the fluorescence signal is measured for 6 min. Then, 50 μl of DHPG solution ((S)-3,5-dihydroxyphenylglycine, Tocris Biotrend Chemikalien GmbH, Cologne, Germany, final DHPG concentration: 10 μM) are added and Ca^2+ influx is simultaneously measured for 60 s. The final DMSO concentration amounts to 0.25% and the final Tween 20 content amounts to 0.005%. The data are analysed with Microsoft Excel and GraphPad Prism. The dose-response curves are calculated with non-linear regression and IC50 values are determined. Each data point is determined in triplicate and IC50 values are averaged from a minimum of 2 independent measurements.
Ki values are calculated using the following formula: Ki=IC50/(1+(AGconc/EC50)).
AGconc=10 μM; EC50 corresponds to the DHPG concentration which is necessary for the semimaximal influx of Ca^2+.

pain response in rats = experiment: Formaldehyde test in rats (phase 2, chronic pain component); format: in vivo
Description: III. Formaldehyde Test in Rats:
The formaldehyde test (Dubuisson, D. and Dennis, S. G., 1977, Pain, 4, 161-174) is a model of acute and chronic pain. A biphasic nociceptive response is induced in freely mobile test animals by a single formaldehyde injection into the dorsal side of a hind paw, said response being detected by the observation of three clearly distinguishable behaviour patterns. The response is in two phases: phase 1=immediate response (duration up to 10 min; paw shaking, licking), phase 2=late response (after a resting phase; likewise paw shaking, licking; duration up to 60 min). […] In the investigations presented here, it was the chronic pain component (phase 2) which was evaluated.
Formaldehyde is administered subcutaneously in a volume of 50 μl and a concentration of 5% into the dorsal side of the right hind paw of each animal. […] The specific behavioural changes, such as raising and shaking the paw, changes in weight bearing of the animal and biting and licking responses are observed and recorded over the observation period of 21 to 27 min after the formaldehyde injection. The various behaviours are summarised as a “pain rate” (PR), which is the calculated nociceptive response averaged over 3 min sub-intervals. […]

O=C(C#Cc1ccccc1)N1CCc2ccccc2C1 [Example 1, 2-(3-phenyl-propiolyl)-1,2,3,4-tetrahydro-isoquinoline]
IC50 (mGluR5 receptor (pig)): 180 nM | Ki (mGluR5 receptor (human)): 11.5 nM

O=C(C#Cc1cccc(Cl)c1)N1CCc2ccccc2C1 [Example 5, 2-(3-(3-chlorophenyl)-propiolyl)-1,2,3,4-tetrahydro-isoquinoline]
IC50 (mGluR5 receptor (pig)): 23 nM | Ki (mGluR5 receptor (human)): 1 nM

O=C(C#Cc1cccc(Cl)c1)N1CCc2ccccc2CC1 [Example 12, 3-(3-(3-chlorophenyl)-propiolyl)-1,2,4,5-tetrahydrobenzo[d]azepine]
IC50 (mGluR5 receptor (pig)): 23 nM | Ki (mGluR5 receptor (human)): 0.3 nM

CC1c2ccccc2CCN1C(=O)C#Cc1cccc(Cl)c1 (stereo not drawn) [Example 18, 2-(3-(3-chlorophenyl)-propiolyl)-1-methyl-1,2,3,4-tetrahydro-isoquinoline]
IC50 (mGluR5 receptor (pig)): 5.4 nM | Ki (mGluR5 receptor (human)): 1.2 nM | ED50 (pain response in rats; iv, rat, i.v., 30 min before formaldehyde): 1.06 mg/kg | Formaldehyde test (rat) per os Reduction in nociceptive behaviour relative to control at 10 mg/kg [%] (pain response in rats; per os, 10 mg/kg): 41%

CC1Cc2ccccc2CN1C(=O)C#Cc1cccc(Cl)c1 (stereo not drawn) [Example 19, 2-(3-(3-chlorophenyl)-propiolyl)-3-methyl-1,2,3,4-tetrahydro-isoquinoline]
IC50 (mGluR5 receptor (pig)): 53 nM | Ki (mGluR5 receptor (human)): 4.9 nM

COc1cccc2c1CCN(C(=O)C#Cc1cccc(Cl)c1)C2 [Example 30, 2-(3-(3-chlorophenyl)-propiolyl)-5-methoxy-1,2,3,4-tetrahydro-isoquinoline]
IC50 (mGluR5 receptor (pig)): 1.5 nM | Ki (mGluR5 receptor (human)): 0.9 nM

Cc1ccc(C#CC(=O)N2c3ccccc3CC2C)c(C)c1 (stereo not drawn) [Example 63, 1-(3-(2,4-dimethylphenyl)-propiolyl)-2-methyl-indoline]
mGluR5 receptor (pig) (10 μM) Inhibition (%) (mGluR5 receptor (pig)): 34%

O=C(C#Cc1ccc(F)cc1)N1CCc2ccccc2C1 [Example 64, 2-(3-(4-fluorophenyl)-propiolyl)-1,2,3,4-tetrahydro-isoquinoline]
mGluR5 receptor (pig) (10 μM) Inhibition (%) (mGluR5 receptor (pig)): 88%

CC1Cc2ccccc2N1C(=O)C#Cc1ccc(F)cc1 (stereo not drawn) [Example 65, 1-(3-(4-fluorophenyl)-propiolyl)-2-methyl-indoline]
mGluR5 receptor (pig) (10 μM) Inhibition (%) (mGluR5 receptor (pig)): 34%

CC1Cc2ccccc2N1C(=O)C#Cc1cccc(Cl)c1 (stereo not drawn) [Example 66, 1-(3-(3-chlorophenyl)-propiolyl)-2-methyl-indoline]
mGluR5 receptor (pig) (10 μM) Inhibition (%) (mGluR5 receptor (pig)): 70%

Cc1ccc(C#CC(=O)N2CCc3ccccc3C2)cc1F [Example 67, 2-(3-(3-fluoro-4-methylphenyl)-propiolyl)-1,2,3,4-tetrahydro-isoquinoline]
mGluR5 receptor (pig) (10 μM) Inhibition (%) (mGluR5 receptor (pig)): 12%

Cc1ccc(C#CC(=O)N2c3ccccc3CC2C)cc1F (stereo not drawn) [Example 68, 1-(3-(3-fluoro-4-methylphenyl)-propiolyl)-2-methyl-indoline]
mGluR5 receptor (pig) (10 μM) Inhibition (%) (mGluR5 receptor (pig)): 11%

Cc1ccc(C#CC(=O)N2CCc3ccccc3C2)cc1C [Example 71, 2-(3-(3,4-dimethylphenyl)-propiolyl)-1,2,3,4-tetrahydro-isoquinoline]
mGluR5 receptor (pig) (10 μM) Inhibition (%) (mGluR5 receptor (pig)): 43%

Cc1ccc(C#CC(=O)N2c3ccccc3CC2C)cc1C (stereo not drawn) [Example 72, 1-(3-(3,4-dimethylphenyl)-propiolyl)-2-methyl-indoline]
mGluR5 receptor (pig) (10 μM) Inhibition (%) (mGluR5 receptor (pig)): 25%

COc1ccc(Br)c(C#CC(=O)N2c3ccccc3CC2C)c1 (stereo not drawn) [Example 73, 1-(3-(2-bromo-5-methoxyphenyl)-propiolyl)-2-methyl-indoline]
mGluR5 receptor (pig) (10 μM) Inhibition (%) (mGluR5 receptor (pig)): 45%

Cc1ccccc1C#CC(=O)N1c2ccccc2CC1C (stereo not drawn) [Example 74, 1-(3-(2-tolyl)-propiolyl)-2-methyl-indoline]
mGluR5 receptor (pig) (10 μM) Inhibition (%) (mGluR5 receptor (pig)): 12%

CC1Cc2ccccc2N1C(=O)C#Cc1ccccc1C(F)(F)F (stereo not drawn) [Example 75, 1-(3-(2-trifluoromethylphenyl)-propiolyl)-2-methyl-indoline]
mGluR5 receptor (pig) (10 μM) Inhibition (%) (mGluR5 receptor (pig)): 45%

N#Cc1ccccc1C#CC(=O)N1CCc2ccccc2C1 [Example 76, 2-(3-(2-cyano-phenyl)-propiolyl)-1,2,3,4-tetrahydro-isoquinoline]
mGluR5 receptor (pig) (10 μM) Inhibition (%) (mGluR5 receptor (pig)): 26%

N#Cc1cccc(C#CC(=O)N2CCc3ccccc3C2)c1 [Example 77, 2-(3-(3-cyano-phenyl)-propiolyl)-1,2,3,4-tetrahydro-isoquinoline]
mGluR5 receptor (pig) (10 μM) Inhibition (%) (mGluR5 receptor (pig)): 90%
